Reference: publication PMC5059921, “Chalepin: isolated from Ruta angustifolia L. Pers induces mitochondrial mediated apoptosis in lung carcinoma cells” (BMC Complementary and Alternative Medicine, 2016)
Read-outs that look alike come from different tables or passages of the source.

Key:
washed rabbit platelets = system: washed rabbit platelets; set-up: method as in earlier work; key to effect on platelet aggregation (class symbol): A: P latelet aggregation was promoted; settings: cited from earlier work; for % inhibition of platelet aggregation, inducer AA: AA 100 /c109/c77; for % inhibition of platelet aggregation, inducer PAF: PAF 2ng/mL; for % inhibition of platelet aggregation, inducer Col: collagen 10 /c109g/mL; for % inhibition of platelet aggregation, inducer Thr: thrombin 0.1 U/mL; for antiplatelet aggregation activity (in words): at 100 /c109g/mL
Hepa: Human hepatoma = system: Hepa: Human hepatoma; set-up: method as in earlier work; settings: cited from earlier work
A549 cell line = experiment: SRB in vitro cytotoxicity screening; format: cell-based, human; settings: isolated compounds
Method: (§1) The human cell lines A549 (lung cancer) and Ca Ski (cervical cancer) were cultured as monolayer in RPMI 1640 growth media whereas HCT-116 (colon cancer) and MRC5 (human normal lung fibroblasts) was cultured in McCoy’s 5A and EMEM medium, respectively. All cells were purchased from the […] (ATCC, USA). All the media were supplemented with 10 % v/v foetal bovine serum (FBS), 100 μg/mL penicillin/streptomycin, and 50 μg/mL amphotericin B. The cells were cultured in a 5 % CO2 incubator at 37 °C.
(§2) The monolayer cell culture was detached using accutase and the cell count was adjusted to 2.5 x10^5 -3.0 x10^5 cells/mL using medium containing feotal bovine serum. The cells were then plated into 96 wells with a cell density of 5000-7000 cells/well and then incubated for 24 h to allow adherence of cells to the base of well of the plates. The media was then removed and 200 μl of fresh media containing different concentration of various extracts or isolated compounds were added. Cisplatin was used as the positive control. The plates were incubated for 24, 48 and 72 h at 37 °C and 5 % CO2. The cytotoxicity of the extracts and isolated compounds were screened using the […] (SRB) assay. This assay was first described by Houghton in 2007 [8]. The incubation was halted by gentle addition of 50 μl ice cold 4 % trichloroacetic acid (TCA) to each well and the plates were incubated at 4 °C for 1 h. Then, the supernatant was discarded and the plates were washed with distilled water for 5 times and then air dried. SRB dye, 50 μl, (0.4 % w/v) was added into each well and the treated cells and control were incubated at room temperature for 30 min. The unbound dye was removed by rapid washing four times with 1 % acetic acid. The plates were then air dried and 100 μl of tris base (10 mM unbuffered, pH 10.5) was added and the plates were shaken at 500 rpm for 5 min to solublize the bound SRB stain. The plates were then read with an ELISA reader (Synergy H1 Hybrid) at an absorbance of 492 nm.

[1] = system: MRC5 (human normal lung fibroblasts); experiment: SRB in vitro cytotoxicity screening (toxicity to normal cells); format: cell-based; settings: isolated compounds; for IC50: 72 h, read-out: IC50 in μg/ml (μM) (MRC5) 72 h (converted)
Method: as §1, §2

[2] = system: DLD (DLD-1): Human colon adenocarcinoma; set-up: method as in earlier work; settings: cited from earlier work
[3] = system: Hela: Human cervix epithelioid carcinoma; set-up: method as in earlier work; settings: cited from earlier work
[4] = Homo sapiens, A549, 48 h, value in brackets, read-out: IC50 in μg/ml (μM) (A549) 48 h (converted)
[5] = Homo sapiens, A549, 48 h, read-out: IC50 in μg/ml (μM) (A549) 48 h (converted)
[6] = Homo sapiens, A549, 72 h, value in brackets, read-out: IC50 in μg/ml (μM) (A549) 72 h (converted)
[7] = Homo sapiens, A549, 72 h, read-out: IC50 in μg/ml (μM) (A549) 72 h (converted)
[8] = Homo sapiens, MRC5, value in brackets

Compound	antiplatelet aggregation activity (in words) (washed rabbit platelets)	ED50 Hepa (Hepa: Human hepatoma)	IC50 (A549 cell line; [4])	IC50 (A549 cell line; [5])	IC50 (A549 cell line; [6])	IC50 (A549 cell line; [7])	IC50 [1, 8]	IC50 ([1]; Homo sapiens, MRC5)	ED50 DLD [2]	further results
1-hydroxy-N-methylacridone [Compound 1]	no obvious activity	- (“-“: ED50 /c6220 /c109g/mL)	–	–	–	–	–	–	–	% inhibition of platelet aggregation, inducer AA (washed rabbit platelets; Conc. 20 /c109g/mL): 17.8%; % inhibition of platelet aggregation, inducer PAF (washed rabbit platelets; Conc. 20 /c109g/mL): 3.4%; % inhibition of platelet aggregation, inducer Col (washed rabbit platelets; Conc. 20 /c109g/mL): 3.7%; % inhibition of platelet aggregation, inducer Thr (washed rabbit platelets; Conc. 20 /c109g/mL): 4.3%; effect on platelet aggregation (class symbol) (washed rabbit platelets; Conc. 50 /c109g/mL, inducer column cannot be told): A
COc1c2ccoc2cc2oc(=O)ccc12 [Bergapten, bergapten]	–	–	> 463 µM	> 100 µg/mL	202 µM	43.5 ± 1.81 µg/mL	> 463 µM	> 100 µg/mL	–	–
N.N.[Cl][Pt][Cl] [Cisplatin, reference compound]	–	–	–	–	–	–	–	–	–	IC50 in μg/ml (μM) (A549) 72 h (A549 cell line; 72 h): 24.5 ± 1.8 µg/mL; IC50 (A549 cell line; 72 h, value in brackets, read-out: IC50 in μg/ml (μM) (A549) 72 h (converted)): 81.7 µM; IC50 in μg/ml (μM) (MRC5) 72 h [1]: > 100 µg/mL; IC50 ([1]; value in brackets): > 333 µM
COc1cc2c(c(O)c1OC)c(=O)c1ccccc1n2C [Compound 2, arborinine]	no obvious activity	- (“-“: ED50 /c6220 /c109g/mL)	–	–	–	–	–	–	- (“-“: ED50 /c6220 /c109g/mL)	% inhibition of platelet aggregation, inducer AA (washed rabbit platelets; Conc. 50 /c109g/mL): 51.6%; % inhibition of platelet aggregation, inducer PAF (washed rabbit platelets; Conc. 50 /c109g/mL): 4.8%; % inhibition of platelet aggregation, inducer Col (washed rabbit platelets; Conc. 50 /c109g/mL): 39.1%; % inhibition of platelet aggregation, inducer Thr (washed rabbit platelets; Conc. 50 /c109g/mL): 1.1%
COc1cc2nc3occc3c(OC)c2cc1OC [Compound 6, kokusaginine]	no obvious activity	- (“-“: ED50 /c6220 /c109g/mL)	–	–	–	–	–	–	- (“-“: ED50 /c6220 /c109g/mL)	% inhibition of platelet aggregation, inducer AA (washed rabbit platelets; Conc. 100 /c109g/mL): 42.2%; % inhibition of platelet aggregation, inducer PAF (washed rabbit platelets; Conc. 100 /c109g/mL): 3.5%; % inhibition of platelet aggregation, inducer Col (washed rabbit platelets; Conc. 100 /c109g/mL): 53.1%; % inhibition of platelet aggregation, inducer Thr (washed rabbit platelets; Conc. 100 /c109g/mL): 0.9%
COc1c2ccoc2c(OC)c2oc(=O)ccc12 [Compound 11, isopimpinellin]	no obvious activity	–	–	–	–	–	–	–	–	% inhibition of platelet aggregation, inducer AA (washed rabbit platelets; Conc. 100 /c109g/mL): 30.4%; % inhibition of platelet aggregation, inducer PAF (washed rabbit platelets; Conc. 100 /c109g/mL): 4.5%; % inhibition of platelet aggregation, inducer Col (washed rabbit platelets; Conc. 100 /c109g/mL): 8.0%; % inhibition of platelet aggregation, inducer Thr (washed rabbit platelets; Conc. 100 /c109g/mL): 3.9%
C=CC(C)(C)c1cc2cc3c(cc2oc1=O)OC(C(C)(C)OC(C)=O)C3 (centres unmarked) [Compound 14, rutamarin]	no obvious activity	- (“-“: ED50 /c6220 /c109g/mL)	–	–	–	–	–	–	–	% inhibition of platelet aggregation, inducer AA (washed rabbit platelets; Conc. 50 /c109g/mL): 7.6%; % inhibition of platelet aggregation, inducer PAF (washed rabbit platelets; Conc. 50 /c109g/mL): 4.5%; % inhibition of platelet aggregation, inducer Col (washed rabbit platelets; Conc. 50 /c109g/mL): 10.5%; % inhibition of platelet aggregation, inducer Thr (washed rabbit platelets; Conc. 50 /c109g/mL): 3.0%
COc1cc2ccc(=O)oc2cc1O [Compound 15, scopoletin]	no obvious activity	- (“-“: ED50 /c6220 /c109g/mL)	–	–	–	–	–	–	- (“-“: ED50 /c6220 /c109g/mL)	% inhibition of platelet aggregation, inducer AA (washed rabbit platelets; Conc. 100 /c109g/mL): 14.7%; % inhibition of platelet aggregation, inducer PAF (washed rabbit platelets; Conc. 100 /c109g/mL): 1.6%; % inhibition of platelet aggregation, inducer Col (washed rabbit platelets; Conc. 100 /c109g/mL): 3.4%; % inhibition of platelet aggregation, inducer Thr (washed rabbit platelets; Conc. 100 /c109g/mL): 1.5%; ED50 Hela [3]: - (“-“: ED50 /c6220 /c109g/mL)
Cn1c(-c2ccc3c(c2)OCO3)cc(=O)c2ccccc21 [Compound 17, graveoline]	no obvious activity	- (“-“: ED50 /c6220 /c109g/mL)	–	–	–	–	–	–	- (“-“: ED50 /c6220 /c109g/mL)	% inhibition of platelet aggregation, inducer AA (washed rabbit platelets; Conc. 50 /c109g/mL): 9.5%; % inhibition of platelet aggregation, inducer PAF (washed rabbit platelets; Conc. 50 /c109g/mL): 6.2%; % inhibition of platelet aggregation, inducer Col (washed rabbit platelets; Conc. 50 /c109g/mL): 5.2%; % inhibition of platelet aggregation, inducer Thr (washed rabbit platelets; Conc. 50 /c109g/mL): 1.1%
Cn1c(-c2ccc3c(c2)OCO3)cc(=O)c2ccccc21 [Graveoline, graveoline]	–	–	274 µM	76.3 ± 2.08 µg/mL	160 µM	44.6 ± 0.47 µg/mL	250 µM	69.7 ± 2.5 µg/mL	–	–
COc1cc2nc3occc3c(OC)c2cc1OC [Kokusaginine, kokusaginine]	–	–	–	–	–	–	289 µM	74.8 ± 0.82 µg/mL	–	IC50 (A549 cell line; Homo sapiens, A549, 48 h, 48 h, value in brackets, read-out: IC50 in μg/ml (μM) (A549) 48 h (converted)): 338 µM; IC50 (A549 cell line; Homo sapiens, A549, 48 h, 48 h, read-out: IC50 in μg/ml (μM) (A549) 48 h (converted)): 87.4 ± 7.08 µg/mL; IC50 (A549 cell line; Homo sapiens, A549, 72 h, 72 h, value in brackets, read-out: IC50 in μg/ml (μM) (A549) 72 h (converted)): > 386 µM; IC50 (A549 cell line; Homo sapiens, A549, 72 h, 72 h, read-out: IC50 in μg/ml (μM) (A549) 72 h (converted)): > 100 µg/mL
CC(=O)CCCCc1ccc2c(c1)OCO2 [Moskachan B, moskachan B]	–	–	> 454 µM	> 100 µg/mL	> 454 µM	> 100 µg/mL	> 454 µM	> 100 µg/mL	–	–
CC(=O)CCCCCCc1ccc2c(c1)OCO2 [Moskachan D, moskachan D]	–	–	312 µM	77.5 ± 3 µg/mL	74.6 µM	18.5 ± 0.65 µg/mL	366 µM	90.8 ± 0.8 µg/mL	–	–
C=CC(=C)CCCC(C)CCCC(C)CCCC(C)C (centres unmarked) [Neophytadiene, neophytadiene]	–	–	249 µM	69.2 ± 1.06 µg/mL	245 µM	68 ± 2.43 µg/mL	278 µM	77.4 ± 0.98 µg/mL	–	–
bergapten [Compound 9]	no obvious activity	- (“-“: ED50 /c6220 /c109g/mL)	–	–	–	–	–	–	- (“-“: ED50 /c6220 /c109g/mL)	% inhibition of platelet aggregation, inducer AA (washed rabbit platelets; Conc. 50 /c109g/mL): 63.5%; % inhibition of platelet aggregation, inducer PAF (washed rabbit platelets; Conc. 50 /c109g/mL): 4.5%; % inhibition of platelet aggregation, inducer Col (washed rabbit platelets; Conc. 50 /c109g/mL): 59.0%; % inhibition of platelet aggregation, inducer Thr (washed rabbit platelets; Conc. 50 /c109g/mL): 7.5%; ED50 Hela [3]: - (“-“: ED50 /c6220 /c109g/mL)
